What was measured:
[1] = Free radical scavenging ability (DPPH); settings: 37° C. 30 minutes, FIG. 2
Description: A radical solution was prepared by dissolving 100 µM diphenylpicrylhydrazyl (DPPH), composed of stable free radicals, in 99% ethanol. A reaction solution was prepared by dissolving syringaresinol in distilled water with different concentrations (pg/mL) and mixing the syringaresinol solution with the radical solution. A reaction solution not containing syringaresinol was used as a negative control and a reaction solution containing vitamin C (Vit C) was used as a positive control. After sufficiently reacting at 37° C. for 30 minutes, radical scavenging ability was evaluated by measuring absorbance at 515 nm. The radical scavenging ability was calculated relative to the negative control group as 100.

SIRT1 [2] = assay: SIRT1 expression promoting effect in human fibroblasts; format: cell-based; settings: HDF cells, 20, 50 or 100 μM, 24 hours, FIG. 4
Description: (§1) Human keratinocyte HaCaT cells or human fibroblast HDF cells were cultured under the condition of 37° C. and 5% CO2 in DMEM ((Gibco 1210-0038)) containing 10% fetal bovine serum.
(§2) The cultured cells were treated with syringaresinol dissolved in DMSO at a concentration of 20, 50 or 100 μM for 24 hours. Separately from this, the cells were treated with DMSO of 1/1000 of the volume of the culture medium as a negative control. After treating with the test substance, the cells were washed twice with cold PBS and RNA was extracted using TRIzol reagent (Invitrogen). Then, cDNA was synthesized using 1 μg/μL of the extracted RNA and a reverse transcription system (Promega). The expression pattern of the SIRT1 and GAPDH genes was monitored using the synthesized cDNA and predesigned primers and probes (Applied Biosystems; SIRT1, Hs01009006_ml; GAPDH, Hs99999905_ml). PCR reaction and analysis were carried out using the Rotor-Gene 3000 system (Corbett Research, Sydney, Australia). The result is shown in FIG. 3 (keratinocytes) and FIG. 4 (fibroblasts).

interleukin 6 gene = assay: Interleukin 6 gene expression in keratinocytes (Q-RT-PCR); format: cell-based; settings: 24 hours, relative to non-treated control
Description: Interleukin 6 (IL-6) is a cytokine secreted by keratinocytes, etc. Increased secretion owing to activation of the IL-6 gene leads to bright skin color and skin tone and suppressed skin pigmentation such as melasma or blemish. It was investigated whether syringaresinol can increase the expression of the IL-6 gene in skin keratinocytes.
Keratinocytes were treated with 10 ppm or 100 ppm syringaresinol. 24 hours later, the cells were recovered and washed twice with 10 mL of PBS. Then, total RNA was isolated from the cells using TRIzol reagent (Invitrogen, Carlsbad, Calif., USA). The isolated RNA was purified once more using the Qiagen RNeasy kit (Qiagen, Valencia, Calif.) and cDNA was synthesized therefrom using the Superscript Reverse Transcriptase (RT) II kit (Invitrogen, Carlsbad, Calif.). Subsequently, the change in the expression of the interleukin 6 gene was quantitatively analyzed by real-time reverse transcription polymerase chain reaction (Q-RT-PCR). The change in the gene expression pattern was evaluated using the TaqMan gene expression assay kit (Applied Biosystems, Forster City, Calif.). Hs00174360_ml was used as a primer. The expression level of interleukin 6 in the cells was analyzed by real-time PCR and was calculated relative to a non-treated control group.

SIRT1 [3] = assay: SIRT1 expression promoting effect in human keratinocytes; format: cell-based; settings: HaCaT cells, 20, 50 or 100 μM, 24 hours, FIG. 3
Description: as §1, §2

collagen IV = assay: UV-induced collagen breakdown in human keratinocytes (western blot); format: cell-based; settings: HaCaT cells, 50 μM, UVB 30 mJ/cm^2, FIG. 6
Description: Human keratinocyte HaCaT cells were cultured in substantially the same manner as in Test Example 10.
The cultured cells were treated with trypsin to obtain a single-cell suspension. Then, the cells were distributed in a 6-well plate, with 2×10^5 cells per well, and cultured for 24 hours. Subsequently, after replacing the medium with DMEM not containing fetal bovine serum and culturing again for 24 hours, the cells were treated with 50 μM syringaresinol dissolved in DMSO. After treating for 24 hours, the cells were washed with PBS and UVB of 30 mJ/cm^2 was irradiated in PBS. After discarding the PBS, the cells were added to a medium containing syringaresinol of the same concentration. As a control group, the cells were cultured in the same manner without treating with syringaresinol. […] Then, after centrifuging at 4° C. for 10 minutes with 15,000 g, the supernatant was recovered and protein was quantitated using Bio-Rad Protein Dye ReagentTM. […] Bands on the film were scanned with PowerLook 2100 XL (UMAX) and analyzed with the image-analyzing program ImageMaster 2D Elite (Amersham Bioscience).

With COc1cc(C2OCC3C(c4cc(OC)c(O)c(OC)c4)OCC23)cc(OC)c1O (stereo not drawn) [Syringaresinol, syringaresinol] the “Free radical scavenging ability” value [1] was “scavenge free radicals in a concentration-dependent manner and the effect is superior to that of vitamin C”, the “Increase of SIRT1 expression” value (SIRT1 [2]) was no less than 4 times and the “Expression of IL-6 gene” value (interleukin 6 gene; 10 ppm) was 3.5. The “Expression of IL-6 gene” value (interleukin 6 gene; 100 ppm) was 8.2, the “Increase of SIRT1 expression” value (SIRT1 [3]) was no less than 4 times and the UV-induced collagen breakdown (collagen IV) was “inhibits collagen breakdown”.
